In PMC10112521, “High-throughput AR dimerization assay identifies androgen disrupting chemicals and metabolites” (Frontiers in Toxicology, 2023):
Values joined by “and” are separate entries in the source; they are usually repeats but may differ in a detail not shown here. Identical values can stand only once. Like-named read-outs stand apart in the source and are kept apart here.

What was measured:
AR2 cells (HepG2-AR2) = experiment: Alamar Blue (resazurin) post hoc cell viability / cytotoxicity assay in AR2 cells; conditions: spid Viability, sheet antagonist_fits; for hill_tp (Hill model top): 0 where win_model is Constant
Protocol: For antagonist mode and cytotoxicity data, well-level normalized response (resp) was calculated as: resp=100 * RLU−bval/pval−bval where pval is the median RLU value of the MEC positive control wells (minimum four wells).

human AR [1] = target: T1, human AR (Homo sapiens, UniProt P10275); experiment: cell-based; set-up: species or system AR2 cells (HepG2-AR2); NanoLuc complementation AR homodimerization, antagonist mode, loss of agonist-induced luminescence, AC50 by Hill fit; conditions: hill_ga
T1 sequence (P10275 1-920) 1: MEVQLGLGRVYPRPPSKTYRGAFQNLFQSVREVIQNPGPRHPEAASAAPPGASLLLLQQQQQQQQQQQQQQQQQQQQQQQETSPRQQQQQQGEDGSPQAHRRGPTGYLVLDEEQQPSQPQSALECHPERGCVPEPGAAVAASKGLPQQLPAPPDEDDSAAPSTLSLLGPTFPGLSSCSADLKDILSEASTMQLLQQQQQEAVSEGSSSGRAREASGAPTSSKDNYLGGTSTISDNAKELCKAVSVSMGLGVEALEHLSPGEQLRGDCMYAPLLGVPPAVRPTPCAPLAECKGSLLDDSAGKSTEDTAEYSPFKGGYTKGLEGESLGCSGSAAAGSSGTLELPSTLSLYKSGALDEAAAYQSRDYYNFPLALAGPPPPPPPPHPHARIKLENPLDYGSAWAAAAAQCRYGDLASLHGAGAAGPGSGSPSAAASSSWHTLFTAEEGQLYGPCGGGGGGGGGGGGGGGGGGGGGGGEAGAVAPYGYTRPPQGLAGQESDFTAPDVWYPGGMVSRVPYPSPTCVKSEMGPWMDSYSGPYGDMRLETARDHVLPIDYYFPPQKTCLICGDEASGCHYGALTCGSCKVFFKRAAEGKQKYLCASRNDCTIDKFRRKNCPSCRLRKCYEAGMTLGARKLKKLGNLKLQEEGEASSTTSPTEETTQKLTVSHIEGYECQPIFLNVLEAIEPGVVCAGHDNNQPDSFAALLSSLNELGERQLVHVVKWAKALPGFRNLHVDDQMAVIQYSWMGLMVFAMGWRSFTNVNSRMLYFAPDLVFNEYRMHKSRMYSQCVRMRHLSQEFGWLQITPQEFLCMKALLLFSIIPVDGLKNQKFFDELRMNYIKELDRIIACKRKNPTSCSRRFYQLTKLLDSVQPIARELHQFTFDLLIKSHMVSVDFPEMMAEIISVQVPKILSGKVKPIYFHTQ
T1 sequence (P10275 1-920) 2: T1 sequence (P10275 1-920) 1

human AR [2] = target: T1, human AR; experiment: cell-based; set-up: species or system AR2 cells (HepG2-AR2); NanoLuc complementation AR homodimerization, agonist mode, luminescence gain, AC50 by Hill fit; conditions: hill_ga
human AR [3] = target: T1, human AR; experiment: AR2 assay, antagonist mode: disruption of R1881 (10 nM)-induced AR homodimerization in HepG2-AR2 cells; format: cell-based
human AR [4] = target: T1, human AR; experiment: AR2 assay, agonist mode: ligand-dependent AR homodimerization (NanoBiT luciferase complementation) in stable HepG2-AR2 cells; format: cell-based; conditions: sheet agonist_fits; for max_med: maximum median response; for hill_gw: Hill model gain slope (Hill coefficient); for hill_gw / hill_tp: 0 given where win_model is Constant; for hill_tp: Hill model top (efficacy); for win_model: winning concentration-response model (Constant, Hill, Gain-Loss);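 as to hill tp: Log2 fold change of luminescence over DMSO vehicle wells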;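 as to max med: Log2 fold change of luminescence over DMSO vehicle wells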
AR = test system: AR; set-up: method as in Kleinstreuer et al., 2017; conditions: AR agonist reference class ref Kleinstreuer et al., 2017; cited from earlier work
[5] = test system: full-length human AR and the receptor interacting domain (RID) of SRC1; set-up: method as in U.S. EPA, 2002b; conditions: cited from earlier work
[6] = test system: human AR (LBD and AF2 domains) and the RID of human SRC2; set-up: method as in U.S. EPA, 2002b; conditions: activity call, agonist mode, 2 h; invitroDBv3.4 ref U.S. EPA, 2002b; cited from earlier work
[7] = spid AR_antagonist, sheet antagonist_fits
[8] = spid AR_antagonist, sheet antagonist_fits, 0 where win_model is Constant
[9] = spid=Bgal, agonist mode, 18 h, no CYP expressed
[10] = spid=Bgal, antagonist mode, 10 nM agonist stimulus, 18 h, no CYP expressed
[11] = spid=No_RNA, antagonist mode, 10 nM agonist stimulus, 18 h, no CYP expressed
[12] = spid=No_RNA, agonist mode, 18 h, no CYP expressed

Row | SMILES | max_med (maximum median response) (AR2 cells (HepG2-AR2)) | hill_tp (Hill model top) (AR2 cells (HepG2-AR2)) | max_med (maximum median response) (human AR [3]; [7]) | win_model (winning concentration-response model) (human AR [3]; [7]) | hill_gw (Hill model slope) (human AR [3]; [8]) | hill_tp (Hill model top) (human AR [3]; [8]) | max_med (human AR [4]) | AC50 (human AR [2]; [9]) [µM] | hill_gw (human AR [4]) | hill_tp (human AR [4]) | win_model (human AR [4]) | AC50 (human AR [1]; [10]) [µM] | AC50 (human AR [1]; [11]) [µM] | AC50 (human AR [2]; [12]) [µM] | further results
1 | CCOP(=S)(OCC)Oc1nc(Cl)c(Cl)cc1Cl [Chlorpyrifos] | 11.582 | 0 | 43.366 | Hill | 1.601 | 66.6083 | -0.04623 |  |  |  |  |  |  |  | AC50 (human AR [1]): 32.9 µM and 58.7 µM; AC50 (human AR [2]): > 99.9 µM
2 | O=[N+]([O-])c1c(Cl)c(Cl)c(Cl)c(Cl)c1Cl [Pentachloronitrobenzene] | 37.6424 | 16.6244 | 40.8543 | Hill | 8 | 49.0252 | 0.2467 | > 99.9 | 5.807 | 0.296 | Gain-Loss |  |  |  | 
3 | O=C(c1ccc(O)cc1O)c1ccc(O)cc1O [2,2',4,4'-Tetrahydroxybenzophenone] | 18.7262 | 17.7235 | 92.9832 | Hill | 1.5932 | 93.4271 | 2.26 | 9.83 | 3.418 | 2.275 | Gain-Loss | 9.95 | 10.6 | 9.94 | 
4 | CCCCOC(=O)c1ccc(O)cc1 [Butylparaben] | 19.2784 | 11.4715 | 51.2671 | Hill | 8 | 52.9514 | 0.1079 | 10.4 | 8 | 0.09975 | Gain-Loss | 73.1 | 67.8 | 15.3 | 
5 | CCCN(CCC)c1c([N+](=O)[O-])cc(C(F)(F)F)cc1[N+](=O)[O-] [Trifluralin] | 33.7321 | 18.5971 |  | Hill | 1.383 |  | 0.1998 |  | 0.3 | 0.2593 | Gain-Loss | 52.2 | 47.5 | > 99.9 | hill_tp (Hill model top) (human AR [3]): 55.7657; max_med (maximum median response) (human AR [3]): 39.0604
6 | C[C@]12CC[C@@H]3c4ccc(O)cc4CC[C@H]3[C@@H]1CC[C@H]2O [17alpha-Estradiol] | 9.057 | 0 |  |  |  |  |  |  |  |  |  |  |  |  | Agonist reference (AR): Inactive; OT 8 hr [5]: 1; OT 16 hr [5]: 1; UPitt agonist [6]: 1
